Data set [1] has as its system microbial flora in the target watershed. Particulars: determined by EUCAST database; unit assumed; cited from earlier work.
Data set [2] has the same test system. Nature of the data set: minimum inhibitory concentration (MIC) by EUCAST database and drug resistance prediction invalid concentration PNECr. The note with it: PNECR=MIC/AF, AF 10.
From the text: Minimum inhibitory concentration (MIC) of some antibiotics and drug resistance prediction invalid concentration (PNECr) of microbes
For data set [3] the following is noted: buffer; cited from earlier work.
The subject of data set [4] is microbial flora in the target watershed (environmental microbes, resistant genes). Particulars: logistic model fitting of S against concentration; target solution DNA.

On to `C[C@@H]1[C@H](O)[C@@H](C)/C=C/C=C/C=C/C=C/C=C/C=C/C=C/[C@H](O[C@@H]2O[C@H](C)[C@@H](O)[C@H](N)[C@@H]2O)C[C@@H]2O[C@](O)(C[C@@H](O)C[C@@H](O)[C@H](O)CC[C@@H](O)C[C@@H](O)CC(=O)O[C@H]1C)C[C@H](O)[C@H]2C(=O)O` [Amphotericin B], for which, in data set [1], the Observed MIC is 8 µg/mL. The PNECr in data set [2] is reported as 0.8. As to Lolakabiv, the Observed MIC in data set [1] was 125 µg/mL. Further, the PNECr in data set [2] is recorded as 12.5. As for Lincomycin, in data set [1], the Observed MIC is 500 µg/mL. Further, the PNECr in data set [2] is on record as 50. Consider Bacitracin, for which the Observed MIC in data set [1] was 2000 µg/mL. Also, in data set [2], the PNECr is 200. Colistin: the Observed MIC in data set [1] was 64 µg/mL. The PNECr in data set [2] is recorded as 6.4. With `CC[C@H]1OC(=O)C[C@@H](O)[C@H](C)[C@@H](O[C@@H]2O[C@H](C)[C@@H](O[C@H]3C[C@@](C)(O)[C@@H](O)[C@H](C)O3)[C@H](N(C)C)[C@H]2O)[C@@H](CC=O)C[C@@H](C)C(=O)/C=C/C(C)=C/[C@@H]1CO[C@@H]1O[C@H](C)[C@@H](O)[C@@H](OC)[C@H]1OC` [Tylosin], the Observed MIC in data set [1] was 2000 µg/mL. The PNECr in data set [2] is 200. As to Dehydrated erythromycin, in data set [3], the “t1/2” value is 365 days. As for `CN(C)[C@@H]1C(O)=C(C(N)=O)C(=O)[C@@]2(O)C(O)=C3C(=O)c4c(O)cccc4[C@@](C)(O)[C@H]3[C@H](O)[C@@H]12` [Oxytetracycline], the Observed MIC in data set [1] is 125 µg/mL. For the same compound, in data set [2], the PNECr was 12.5.

For Capreomycin, the Observed MIC in data set [1] is 1000 µg/mL. Besides, the PNECr in data set [2] is reported as 100. Regarding `CS(=O)(=O)c1ccc([C@@H](O)[C@@H](CO)NC(=O)C(Cl)Cl)cc1` [Thiamphenicol], in data set [1], the Observed MIC was 500 µg/mL. Besides, in data set [2], the PNECr is given as 50. Consider `CN(C)[C@@H]1C(O)=C(C(N)=O)C(=O)[C@@]2(O)C(O)=C3C(=O)c4c(O)cccc4[C@@](C)(O)[C@H]3C[C@@H]12` [Tetracycline], for which the “MSC value (antibiotic concentration at S=0)” value in data set [4] was about 11.39 µg/L. For the compound Spiramycin, the Observed MIC in data set [1] was 2000 µg/mL. In data set [2], the PNECr is given as 200. In the case of Cefadroxil, the Observed MIC in data set [1] was 125 µg/mL. In addition, in data set [2], the PNECr is 12.5. In the case of Neomycin, the Observed MIC in data set [1] is 125 µg/mL. Further, the PNECr in data set [2] is 12.5. As to Pefloxacin, the Observed MIC in data set [1] is 4000 µg/mL. For the same compound, the PNECr in data set [2] is listed as 400. For FLORFENICOL, in data set [1], the Observed MIC is 125 µg/mL. In data set [2], the PNECr was 12.5. Turning to Virginiamycin, in data set [1], the Observed MIC is 250 µg/mL. Besides, the PNECr in data set [2] is on record as 25.

Consider Chloramphenicol, for which, in data set [1], the Observed MIC is 125 µg/mL. Besides, the PNECr in data set [2] is reported as 12.5. Fusiform acid: in data set [1], the Observed MIC is 32 µg/mL. The PNECr in data set [2] was 3.2.

In the case of Kanamycin, in data set [1], the Observed MIC was 125 µg/mL. In addition, the PNECr in data set [2] is listed as 12.5.

For the compound Sulbactam sodium, the Observed MIC in data set [1] was 250 µg/mL. In addition, the PNECr in data set [2] is 25. For `C[C@@H](O)[C@H]1C(=O)N2C(C(=O)O)=C(S[C@@H]3CN[C@H](CNS(N)(=O)=O)C3)[C@H](C)[C@H]12` [Doripenan], the Observed MIC in data set [1] was 2 µg/mL. Moreover, in data set [2], the PNECr is reported as 0.2. Sulfamethoxazole: the Observed MIC in data set [1] is 1000 µg/mL. Further, in data set [2], the PNECr is 100. In the case of Streptomycin, the Observed MIC in data set [1] is 125 µg/mL. Further, in data set [2], the PNECr was 12.5. Turning to Vancomycin, the Observed MIC in data set [1] was 125 µg/mL. The PNECr in data set [2] is 12.5.

As for Tiamulin, in data set [1], the Observed MIC is 500 µg/mL. For the same compound, in data set [2], the PNECr was 50. Take Nalidixic acid: the Observed MIC in data set [1] is 500 µg/mL. Also, the PNECr in data set [2] was 50. In the case of Ethambutol, in data set [1], the Observed MIC is 1000 µg/mL. In addition, the PNECr in data set [2] is 100. As for `COC[C@H]1O[C@@H](OC2OC[C@@H]3O[C@]4(O[C@H]3[C@H]2OC(=O)C(C)C)O[C@H](C)[C@@](O)(C(C)=O)[C@@H]2OCO[C@H]24)[C@@H](OC)[C@@H](O)[C@@H]1O[C@@H]1O[C@H](C)[C@H](OC)[C@H](O[C@H]2C[C@@]3(C)OC4(C[C@@H](O)[C@H](O[C@H]5C[C@@H](O)[C@H](OC(=O)c6c(C)c(Cl)c(O)c(Cl)c6OC)[C@@H](C)O5)[C@@H](C)O4)O[C@@H]3[C@@H](C)O2)[C@H]1O` (stereo partly shown) [Avilamycin], the Observed MIC in data set [1] was 1000 µg/mL. The PNECr in data set [2] was 100. In the case of `CC1(C)S[C@@H]2[C@H](NC(=O)[C@H](C(=O)O)c3ccsc3)C(=O)N2[C@H]1C(=O)O` [Ticarcillin], the Observed MIC in data set [1] is 250 µg/mL. Besides, the PNECr in data set [2] is reported as 25. Turning to Penicillin, the Observed MIC in data set [1] is 4 µg/mL. Further, the PNECr in data set [2] is on record as 0.4.

For the compound Cefalexin, the Observed MIC in data set [1] was 250 µg/mL. Also, the PNECr in data set [2] was 25. For Teicoplanin, the Observed MIC in data set [1] is 1000 µg/mL. In data set [2], the PNECr is recorded as 100.

Turning to Mikafenjin, the Observed MIC in data set [1] is 4 µg/mL. In addition, in data set [2], the PNECr is listed as 0.4.

As to Fosfomycin, the Observed MIC in data set [1] is 125 µg/mL. For the same compound, the PNECr in data set [2] is listed as 12.5. With Tilmicosin, in data set [1], the Observed MIC was 250 µg/mL. Moreover, in data set [2], the PNECr is 25.

In the case of `NCC[C@H](O)C(=O)N[C@@H]1C[C@H](N)[C@@H](O[C@H]2O[C@H](CN)[C@@H](O)[C@H](O)[C@H]2O)[C@H](O)[C@H]1O[C@H]1O[C@H](CO)[C@@H](O)[C@H](N)[C@H]1O` [Amikacin], the Observed MIC in data set [1] is 250 µg/mL. Besides, the PNECr in data set [2] is reported as 25. Regarding Viomycin, in data set [1], the Observed MIC was 1000 µg/mL. Further, in data set [2], the PNECr was 100. In the case of `CC1(C)S[C@@H]2[C@H](/N=C/N3CCCCCC3)C(=O)N2[C@H]1C(=O)O` [Messilinan], the Observed MIC in data set [1] is 64 µg/mL. Also, the PNECr in data set [2] was 6.4. Consider Narasin, for which the Observed MIC in data set [1] was 125 µg/mL. In addition, the PNECr in data set [2] was 12.5.

With Gentamicin, the Observed MIC in data set [1] was 16 µg/mL. Moreover, the PNECr in data set [2] was 1.6. For `NC[C@H]1O[C@H](O[C@H]2[C@H](O)[C@@H](O[C@H]3O[C@H](CO)[C@@H](O)[C@H](N)[C@H]3O)[C@H](N)C[C@@H]2N)[C@H](N)C[C@@H]1O` [Tobramycin], the Observed MIC in data set [1] was 16 µg/mL. Take Linezolid: the Observed MIC in data set [1] is 125 µg/mL. In addition, in data set [2], the PNECr was 12.5. `CC1CCc2cc(F)cc3c(=O)c(C(=O)O)cn1c23` (stereo not shown) [Flumequine]: the Observed MIC in data set [1] is 64 µg/mL.

As to `O=C(O)c1cn(C2CC2)c2cc(N3CCNCC3)c(F)cc2c1=O` [Ciprofloxacin], the Observed MIC in data set [1] is 2 µg/mL.

`O=C1CN(/N=C/c2ccc([N+](=O)[O-])o2)C(=O)N1` [Furantoin]: in data set [1], the Observed MIC is 4000 µg/mL. For the same compound, in data set [2], the PNECr is 400. Sparfloxacin: in data set [1], the Observed MIC is 500 µg/mL. Besides, in data set [2], the PNECr was 50. Quinupustine: the Observed MIC in data set [1] was 4 µg/mL. Further, the PNECr in data set [2] is recorded as 0.4. As to `C[C@@H](O)[C@H]1C(=O)N2C(C(=O)O)=C([C@H]3CCCO3)S[C@H]12` [Faropenem], in data set [1], the Observed MIC was 8 µg/mL.

Turning to `N[C@@H]1[C@H]2CN(c3nc4c(cc3F)c(=O)c(C(=O)O)cn4-c3ccc(F)cc3F)C[C@@H]12` [Travafloxacin], in data set [1], the Observed MIC was 8 µg/mL. Besides, the PNECr in data set [2] is 0.8. Take `N[C@@H](C(=O)N[C@@H]1C(=O)N2C(C(=O)O)=C(Cl)CS[C@H]12)c1ccccc1` [Cefaclor]: the Observed MIC in data set [1] is 32 µg/mL. On to `CC1(C)S[C@@H]2[C@H](NC(=O)[C@H](N)c3ccccc3)C(=O)N2[C@H]1C(=O)O` [Ampicillin], for which, in data set [1], the Observed MIC was 4 µg/mL. For the compound `CO/N=C(\C(=O)N[C@@H]1C(=O)N2C(C(=O)O)=C(COC(N)=O)CS[C@H]12)c1ccco1` [Cefuroxime], in data set [1], the Observed MIC is 8 µg/mL.
